Drawing on ChEMBL document CHEMBL1201862, “PubChem BioAssay data set” (2004), this text covers AC50 and IC50 for nine compounds.

Structures are written as SMILES. Calls of active or inactive are those of the source. Where only a bound is given, the exact number is not on record here.

Test [1] is described as follows: PAX5 activity inhibitors, dose response, selectivity assay for PAX8 inhibitor project, cell-based, plate reader, dry powder samples (AID 743047).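 Note: HEK293 cells carrying a Pax5 driven CD19 promoter luciferase reporter; potency of inhibitors that lower reporter luminescence.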 The test is classed as functional.
A short description of test [2]: cytotoxicity in OVCAR4 cells, dose response, cytotoxicity control for PAX8 inhibitor project, cell-based, plate reader, dry powder, SA11 (AID 743150). The following applies: OVCAR-4. Type of test: functional.
A further test addresses Paired box protein Pax-8 (Homo sapiens, UniProt Q06710). Briefly: inhibitors of PAX8-driven TPO luciferase reporter, dose response, RMG-I cells, cherry-pick (AID 687027).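 Note: luciferase reporter driven by Pax8 target thyroperoxidase promoter measured by SteadyGlo luminescence.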 Type of test: functional, cell-based.
Test [3] in a line: cytotoxicity in OV-90 ovarian cancer cells, dose response, PAX8 inhibitor project, cell-based, plate reader, dry powder, SA8 (AID 743149). The test is classed as functional.
Test [4] can be described thus: cytotoxicity in COV362 ovarian cancer cells, dose response, cytotoxicity control for PAX8 inhibitor project, cell-based, plate reader, dry powder, SA12 (AID 743144). The test is classed as functional.
Test [5] can be described thus: cytotoxicity dependent on PAX8, dose response, cell-based, plate reader, dry powder (AID 743049). Type of test: functional.
Test [6] in a line: PAX2 cell-based inhibition, dose response, selectivity assay for PAX8 inhibitor project, plate reader, dry powder samples (AID 743048).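 Note: HEK293 cells carrying a WT1 promoter luciferase reporter driven by expressed Pax2; potency is for inhibition of Pax2 driven reporter signal.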 Type of test: functional.
The target of test [7] is 1-phosphatidylinositol 4,5-bisphosphate phosphodiesterase gamma-1 (Homo sapiens, UniProt P19174). Briefly: Counterscreen for inhibitors of phospholipase C isozymes (PLC-B3): Fluorescence-based biochemical high throughput dose response assay to identify inhibitors of phospholipase C isozymes (PLC-gamma1). For orientation: Counterscreens check selectivity or assay interference.

The target in test [8] is 1-phosphatidylinositol 4,5-bisphosphate phosphodiesterase beta-3 (Homo sapiens, UniProt Q01970). Briefly: Fluorescence-based biochemical high throughput dose response assay to identify inhibitors of phospholipase C isozymes (PLC-B3).
In test [9] the target is G-protein coupled receptor 183 (Homo sapiens, UniProt P32249). Briefly: SAR confirmation of small molecule antagonists of the EBI2 receptor via a luminescent beta-arrestin assa. Type of test: functional.
A short description of test [10]: P. falciparum Dd2 growth inhibitors, dose response, SYBR Green, dry powder samples, set 9 (AID 1159568). The test is classed as functional, cell-based.
Test [11] can be described thus: SNU-C1 cell viability reduction, dose response, CellTiter-Glo luminescence (AID 1117323). The test is classed as functional, cell-based. (In general: Cellular ATP, detected with luciferase, serves as a proxy for viable cell number.)
Test [12] in a line: cytotoxicity toward HCT116 cells – cell-based, CellTiter-Glo luminescence, IC50, dose response (AID 1117332). The test is classed as functional. The following applies: HCT-116.
Test [13] can be described thus: Concentration-dependent survival of SW480 colon cancer line, luminescence detection with CellTiter-Glo, half-maximal inhibitory concentration (AID 1117338). Type of test: functional.
Test [14] in a line: cytotoxicity toward Colo320 cells – cell-based, CellTiter-Glo luminescence, IC50, dose response (AID 1117334). The test is classed as functional. Particulars: COLO 320.
A short description of test [15]: CellTiter-Glo luminescent dose response of DLD-1 viability loss (AID 1117352). The test is classed as functional.
Test [16] can be described thus: cytotoxicity toward HT-29 cells – cell-based, CellTiter-Glo luminescence, IC50, dose response (AID 1117330). Type of test: functional.
A short description of test [17]: RKO cell viability reduction, dose response, CellTiter-Glo luminescence (AID 1117322). Type of test: functional.
Test [18] can be described thus: HCT116 cell viability decrease, GSK3B pretreatment – CellTiter-Glo, IC50, dose response (AID 1117339). Type of test: functional. The following applies: HCT-116.
Test [19] is described as follows: P. falciparum 3D7-ScDHODH growth inhibitors, dose response, SYBR Green, dry powder samples (AID 1159570).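 Note: parasite growth measured after 72 hours of compound exposure.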 Type of test: functional, cell-based.
The nature of test [20]: P. falciparum Dd2 growth inhibitors, dose response, SYBR Green, cherry-picked samples (AID 1159567). Type of test: functional, cell-based.
The nature of test [21]: P. falciparum ATP4 D1247Y mutant growth inhibitors, dose response, NITD609-resistant line, SYBR Green, dry powder (AID 1159571).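 Note: parasites synchronized at ring stage by sorbitol before testing.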 The test is classed as functional, cell-based.
Test [22] is described as follows: HepG2 cell cytotoxicity, dose response, cytotoxicity control, plate reader, dry powder samples (AID 1159569).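 Note: inhibitor potency with signal falling toward the positive control level.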 Type of test: functional, cell-based.
A short description of test [23]: P. falciparum Dd2 growth inhibitors, dose response, SYBR Green, dry powder samples (AID 1159566).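 Note: potency for growth inhibition with lower SYBR green DNA signal.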 The test is classed as functional, cell-based.
Test [24] can be described thus: Glucagon-like peptide 1 release potency, NCI-H716 cell line, dose-response, half-maximal inhibitory concentration (AID 1117344). Type of test: functional, cell-based.
Test [25] in a line: Dose-response inhibition of insulin secretion in a rat insulinoma line at 5 mM glucose (AID 1117331). Type of test: functional, cell-based. The following applies: INS-1E.
Test [26] in a line: half-maximal inhibitory concentration for glucagon-like peptide-1 release, STC-1 cell line, dose-response (AID 1117345). Type of test: functional, cell-based.

G-protein coupled receptor 183, sequence (P32249 whole entry): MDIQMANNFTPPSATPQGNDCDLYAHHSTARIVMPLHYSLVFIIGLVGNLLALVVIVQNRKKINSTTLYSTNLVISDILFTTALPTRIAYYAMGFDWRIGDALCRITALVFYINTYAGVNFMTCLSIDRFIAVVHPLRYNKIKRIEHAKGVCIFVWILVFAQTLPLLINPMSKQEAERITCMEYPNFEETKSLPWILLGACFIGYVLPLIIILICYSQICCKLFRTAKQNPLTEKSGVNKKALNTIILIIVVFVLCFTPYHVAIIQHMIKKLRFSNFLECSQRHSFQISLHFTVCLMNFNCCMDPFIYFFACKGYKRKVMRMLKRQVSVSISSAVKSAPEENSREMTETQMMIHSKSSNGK
1-phosphatidylinositol 4,5-bisphosphate phosphodiesterase beta-3, sequence (Q01970 whole entry): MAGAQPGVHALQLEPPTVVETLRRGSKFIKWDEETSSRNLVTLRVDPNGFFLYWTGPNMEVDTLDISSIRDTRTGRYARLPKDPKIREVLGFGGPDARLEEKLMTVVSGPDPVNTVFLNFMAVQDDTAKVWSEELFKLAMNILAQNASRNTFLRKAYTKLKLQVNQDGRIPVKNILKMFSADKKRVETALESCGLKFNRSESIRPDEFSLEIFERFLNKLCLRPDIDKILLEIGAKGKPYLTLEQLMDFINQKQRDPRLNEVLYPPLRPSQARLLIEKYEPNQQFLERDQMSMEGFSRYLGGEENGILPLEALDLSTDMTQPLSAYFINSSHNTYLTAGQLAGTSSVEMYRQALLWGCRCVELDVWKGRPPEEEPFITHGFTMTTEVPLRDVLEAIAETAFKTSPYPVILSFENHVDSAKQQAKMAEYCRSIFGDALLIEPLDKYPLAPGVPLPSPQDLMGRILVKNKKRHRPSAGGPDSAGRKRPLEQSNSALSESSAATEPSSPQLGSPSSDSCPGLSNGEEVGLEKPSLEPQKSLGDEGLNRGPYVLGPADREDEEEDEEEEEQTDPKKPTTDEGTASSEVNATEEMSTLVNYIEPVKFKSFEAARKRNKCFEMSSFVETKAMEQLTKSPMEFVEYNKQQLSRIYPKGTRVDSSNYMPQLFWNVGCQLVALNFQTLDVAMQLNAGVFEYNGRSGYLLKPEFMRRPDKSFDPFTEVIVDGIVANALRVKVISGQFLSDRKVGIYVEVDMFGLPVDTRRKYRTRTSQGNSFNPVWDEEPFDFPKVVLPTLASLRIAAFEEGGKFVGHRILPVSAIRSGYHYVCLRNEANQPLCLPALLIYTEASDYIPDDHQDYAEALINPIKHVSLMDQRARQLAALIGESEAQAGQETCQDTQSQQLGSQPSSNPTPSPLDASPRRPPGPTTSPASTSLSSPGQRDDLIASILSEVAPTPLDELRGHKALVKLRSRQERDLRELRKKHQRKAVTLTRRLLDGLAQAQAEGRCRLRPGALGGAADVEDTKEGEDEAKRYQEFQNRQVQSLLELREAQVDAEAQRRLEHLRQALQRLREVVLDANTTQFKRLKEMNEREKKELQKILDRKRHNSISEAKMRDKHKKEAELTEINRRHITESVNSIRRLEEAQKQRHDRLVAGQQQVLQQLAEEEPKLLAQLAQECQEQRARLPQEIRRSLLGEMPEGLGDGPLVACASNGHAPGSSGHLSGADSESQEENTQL
Paired box protein Pax-8, sequence (Q06710 whole entry): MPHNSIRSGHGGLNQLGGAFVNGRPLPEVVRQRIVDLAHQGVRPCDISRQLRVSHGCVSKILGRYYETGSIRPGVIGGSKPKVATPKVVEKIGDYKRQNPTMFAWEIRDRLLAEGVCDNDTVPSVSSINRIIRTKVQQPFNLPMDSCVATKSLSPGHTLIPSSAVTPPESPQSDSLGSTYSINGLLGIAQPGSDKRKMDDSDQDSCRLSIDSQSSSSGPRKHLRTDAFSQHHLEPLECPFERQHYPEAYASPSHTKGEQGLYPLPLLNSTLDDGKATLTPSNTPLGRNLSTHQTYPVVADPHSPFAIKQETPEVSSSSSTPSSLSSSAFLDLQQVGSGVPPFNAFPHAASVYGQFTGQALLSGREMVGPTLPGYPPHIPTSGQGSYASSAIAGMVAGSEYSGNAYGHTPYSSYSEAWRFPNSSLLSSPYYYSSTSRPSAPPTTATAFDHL
1-phosphatidylinositol 4,5-bisphosphate phosphodiesterase gamma-1, sequence (P19174 whole entry): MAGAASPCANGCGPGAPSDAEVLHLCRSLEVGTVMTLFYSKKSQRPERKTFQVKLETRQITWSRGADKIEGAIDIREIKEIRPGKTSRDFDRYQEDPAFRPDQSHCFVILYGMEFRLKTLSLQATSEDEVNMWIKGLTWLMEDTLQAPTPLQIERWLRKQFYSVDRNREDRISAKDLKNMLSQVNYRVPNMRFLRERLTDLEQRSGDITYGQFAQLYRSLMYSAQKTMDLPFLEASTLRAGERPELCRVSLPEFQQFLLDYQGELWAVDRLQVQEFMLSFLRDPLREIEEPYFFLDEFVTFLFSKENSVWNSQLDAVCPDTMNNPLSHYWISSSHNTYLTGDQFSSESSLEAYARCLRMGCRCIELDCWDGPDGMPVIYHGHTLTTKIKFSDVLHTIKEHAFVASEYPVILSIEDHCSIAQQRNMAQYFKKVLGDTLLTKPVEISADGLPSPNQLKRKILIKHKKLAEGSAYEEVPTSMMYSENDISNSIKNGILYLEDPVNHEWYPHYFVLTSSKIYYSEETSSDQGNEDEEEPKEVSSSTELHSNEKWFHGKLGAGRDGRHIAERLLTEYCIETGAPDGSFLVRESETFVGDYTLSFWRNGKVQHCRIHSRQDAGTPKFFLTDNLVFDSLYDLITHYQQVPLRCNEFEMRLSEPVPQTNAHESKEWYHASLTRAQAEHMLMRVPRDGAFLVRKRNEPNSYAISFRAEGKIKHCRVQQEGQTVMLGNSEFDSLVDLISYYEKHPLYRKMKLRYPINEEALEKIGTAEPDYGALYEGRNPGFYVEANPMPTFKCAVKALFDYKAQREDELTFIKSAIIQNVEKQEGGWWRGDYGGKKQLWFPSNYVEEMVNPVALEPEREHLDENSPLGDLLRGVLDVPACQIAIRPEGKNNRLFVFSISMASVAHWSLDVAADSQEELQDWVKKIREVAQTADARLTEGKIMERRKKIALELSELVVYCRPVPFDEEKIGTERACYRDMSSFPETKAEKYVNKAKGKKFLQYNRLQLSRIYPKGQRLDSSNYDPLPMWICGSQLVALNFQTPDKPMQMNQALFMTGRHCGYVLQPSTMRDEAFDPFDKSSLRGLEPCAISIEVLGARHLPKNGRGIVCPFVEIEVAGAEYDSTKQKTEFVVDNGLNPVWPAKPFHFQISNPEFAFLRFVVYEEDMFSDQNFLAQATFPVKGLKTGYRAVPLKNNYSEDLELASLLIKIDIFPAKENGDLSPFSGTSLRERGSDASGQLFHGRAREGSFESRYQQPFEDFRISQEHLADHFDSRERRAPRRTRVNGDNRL

For `CCc1cnc(N2[C@@H](C#N)[C@@H](c3ccc(C#CC(C)C)cc3)[C@@H]2CO)s1`, the AC50 – broadly, the concentration giving half of the maximal activity seen – was 29.4 µM (active) in test [1]; 23.6 µM (active) in test [2]; 15.4 µM (active) on Paired box protein Pax-8; 39.6 µM (active) in test [3]; > 70 µM (inactive) in test [4]; 35.3 µM (active) in [5]. Further, the AC50 in [6] was 24.7 µM (active).
As for `CC[C@H]1C=C[C@@H](C(=O)NS(=O)(=O)c2ccc(C)cc2)N(C(C)=O)C1`, the IC50 in test [7] and in test [8] was > 122 µM (inactive) in each case.
Take `O=C(/C=C/c1ccc(F)cc1)N1CCN(S(=O)(=O)c2ccccc2)CC1`: the IC50 (commonly the midpoint of a concentration-inhibition curve) in test [9] is 12.5 nM (active).
As to `C[C@@H]1CN([C@@H](C)CO)C(=O)c2cc(C#Cc3ccccc3)cnc2O[C@H]1CN(C)C(=O)c1ccccc1`, the AC50 in [10] is 4.99 µM (active).
For `CCCCCCCCCCCCCCCC(=O)OCC=C(C)C=CC=C(C)C=CC1=C(C)CCCC1(C)C`, the IC50 in [11], in test [12], in test [13], in [14], in test [15] and in test [16] was > 20 µM (inactive) each time. The IC50 in [17] and in test [18] was > 20 µM (inactive) each time.
Regarding `CCCNC(=O)N1[C@H](C#N)[C@H](c2ccc(C3=CCCCC3)cc2)[C@@H]1CO`, the AC50 in test [10] was 0.355 µM (active); in test [19], 3.39 µM (active); in test [20], < 300 nM (active); in test [21] it was 85.3 nM (active); in test [22], 601 nM (active); in [23], 22.8 nM (active).
As to `O=C(/C=C/c1ccc(Br)cc1)N1CCN(S(=O)(=O)c2ccc(Br)cc2)CC1`, the IC50 in test [9] is 1.66 nM (active).
As to `CC(C)CCCC(C)NCCC(C)C` (configuration not stated) [OCTAMYLAMINE], the IC50 was > 40 µM (inactive) in test [24], > 33.3 µM (inactive) in test [25] and > 40 µM (inactive) in test [26].
Take `CC(=C(CCOC(=O)C(C)C)SSC(CCOC(=O)C(C)C)=C(C)N(C=O)Cc1cnc(C)nc1N)N(C=O)Cc1cnc(C)nc1N` [SULBUTIAMINE]: the results for the IC50 in test [24], in test [25] and in test [26] were 2.39 µM (active), > 33.3 µM (inactive) and > 40 µM (inactive), respectively.
